# Publication PMC4204849, “Lifespan Based Pharmacokinetic-Pharmacodynamic Model of Tumor Growth Inhibition by Anticancer Therapeutics” (PLoS ONE, 2014)
# Marks after values point to notes of the source that are not given here.
# Legend:
# [1] = Pharmacokinetic study of AZD1208, single oral administration, one-compartment model; assay type: in vivo, mice; settings: single oral 3, 10, 30 mg/kg
# Description: For pharmacokinetic study of AZ968, CD1 mice were given single i.p. injection of AZ968 at 10, 20 or 30 mg/kg with 3 mice per dose group. Blood samples were collected via cardiac puncture. Total plasma concentrations of AZ968 were determined by LC/MS/MS method. Same procedure was used for the pharmacokinetic study of AZD1208, except AZD1208 was administered orally (p.o.) at 3, 10 or 30 mg/kg doses as outlined in the original study.
# (§1) Data for this case study was provided by AstraZeneca. For the purpose of this case study we will set time according to when the first dose of AZD1208 was administered, which we count as day 1. We began with a compartmental PK analysis after a single oral administration of AZD1208 at 3, 10 and 30 mg/kg and found it well described using a one-compartment PK model with first order absorption as shown in Figure 9A.
# MOLM-16 tumor cell = assay: Tumor growth inhibition by AZD1208 in xenograft, lifespan TGI model (non-cycle-specific, Emax); assay type: in vivo, mice
# Description: as §1
# After establishing the PK model, we fit the TGI data using the lifespan TGI model. Since AZD1208 is a pan-Pim kinase inhibitor that promotes apoptosis at any stages of cell cycle, the data were analyzed using the non-cycle-specific model. […] In order to adapt the lifespan TGI model to account for only exponential growth we simply set the tumor threshold, wth, to a very large value well beyond the observed values of tumor size. Another unique feature of this dataset is the inclusion of saturating doses. To accommodate the dose ranges we replaced the drug potency constant, k2, in eq. 18 with the Emax model. The process of fitting was the same as for the previous studies, however, in this study the control data were very sparse and the doubling time, T, could not be estimated. In order to proceed with the analysis we set T = 3 days based on the doubling time reported by the commercial vendor of the MOLM-16 tumor cell used in the study, which was similar to the doubling reported the original study when the cells were initially collected. […] The remaining parameters were estimated with high precision and are well within biologically feasible ranges (see Table 6).
# [2] = mouse, in vivo, iv, 30 mg/kg
# From the text: (§2) Data used in Case Study 1 was obtained from mouse xenograft study reported by Simeoni and colleague. […] Data from the study was digitized using Graph Digitizer 2.0 (Nick's Production).
# [3] = test system: tumors derived from the HCT116 human colon carcinoma cell line; assay: Tumor growth inhibition by paclitaxel in xenograft mice, lifespan TGI model with cycle-specific drug effect; assay type: in vivo; settings: for TA (duration of apoptosis): 30 mg/kg i.v. every 4 days from day 8, grid search, then fixed, data digitized from ref 11; for Emax (maximum effect): fixed to 1 due to lack of escalating doses
# From the text: as §2
# [4] = set-up: method as in PMID 14871843; settings: two-compartment model, parameter fixed, cited from earlier work
SMILES,V/F [1],"elimination rate constant, kel [1]",ka [1],"TA (duration of apoptosis) (MOLM-16 tumor cell; 0.3, 1, 3, 10, 30 mg/kg orally, parameter was fixed)",Emax (MOLM-16 tumor cell; Emax model replacing k2 in non-cycle-specific model),"EC50 (MOLM-16 tumor cell; plasma concentration, Emax model, non-cycle-specific model)",peak plasma concentration [2],TA (duration of apoptosis) [3],TA (duration of apoptosis) ([3]; listed as Paclitaxel),Emax (maximum effect) [3],Emax (maximum effect) ([3]; listed as Paclitaxel),V ([4]; i.v. paclitaxel),k12 [4],k21 [4],kel [4]
N[C@@H]1CCCN(c2c(/C=C3\SC(=O)NC3=O)cccc2-c2ccccc2)C1 [AZD1208],4.86 L/kg,same value as ka,5.52 day⁻¹,1.92 ^a days,0.159,0.182 µg/mL,–,–,–,–,–,–,–,–,–
CC(=O)O[C@H]1C(=O)[C@@]2(C)[C@H]([C@H](OC(=O)c3ccccc3)[C@]3(O)C[C@H](OC(=O)[C@H](O)[C@@H](NC(=O)c4ccccc4)c4ccccc4)C(C)=C1C3(C)C)[C@]1(OC(C)=O)CO[C@@H]1C[C@@H]2O [paclitaxel],–,–,–,–,–,–,37040 ng/mL,0.536 days,0.536 ^a days,1,1 ^a,0.81 L/kg,0.006 h⁻¹,0.0838 h⁻¹,0.868 h⁻¹
